GI50 and TGI data for 10 compounds are collected here from PubChem BioAssay (NCI).

Values joined by “and” are separate entries in the source; they are usually repeats but may differ in a detail not shown here. Identical values can stand only once.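 Five concentrations, 48 hours, 96-well plates. Here, GI50 denotes the concentration required for 50% inhibition of growth. The concentration for full growth arrest is given as TGI.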 A value given as a limit tells only on which side of the number the result lay.

Some test systems named below: BT-549 breast; DU-145 prostate; HS 578T breast; MCF7 breast; MDA-MB-435; NCI/ADR-RES ovarian; PC-3 prostate; T-47D breast.
Holding throughout (assay): growth of human tumour cells (NCI), 48 h

In the case of `Cc1ccc(S(=O)(=O)OCC#CCOS(=O)(=O)c2ccc(C)cc2)cc1`, the GI50 with BT-549 breast was 4.57 µM; in the assay with DU-145 prostate, 1.86 µM; in the assay with HS 578T breast, 2.75 µM; in the assay with MCF7 breast, 3.21 µM; in the assay on MDA-MB-435 it was 1.9 µM; with NCI/ADR-RES ovarian it was 2.12 µM. Moreover, the GI50 with PC-3 prostate is 1.79 µM; in the assay with T-47D breast it was 1.94 µM. Besides, the TGI with BT-549 breast was 9.68 µM; with DU-145 prostate it was 3.76 µM; with HS 578T breast, 14.2 µM; in the assay with MCF7 breast, 16.7 µM; in the assay on MDA-MB-435, 4.3 µM; in the assay on NCI/ADR-RES ovarian, 5.93 µM. Also, the TGI came to 3.6 µM in the assay on PC-3 prostate and 4.26 µM with T-47D breast.
On to `O=C(Nc1cccc(-n2cc(-c3ccncc3)c(-c3ccc(O)c(Cl)c3)n2)c1)c1ccc2c(c1)OCCO2`, for which the GI50 in the assay on BT-549 breast is 4.92 µM; in the assay on DU-145 prostate, > 100 µM; in the assay with HS 578T breast, 6.01 µM; with MCF7 breast it was 4.24 µM; in the assay with MDA-MB-435, > 100 µM; in the assay with NCI/ADR-RES ovarian, 5.7 µM. For the same compound, the GI50 in the assay with PC-3 prostate was 7.3 µM; with T-47D breast, 3.44 µM. Also, the TGI in the assay on BT-549 breast, with DU-145 prostate, in the assay on HS 578T breast, in the assay with MCF7 breast, in the assay with MDA-MB-435 and in the assay with NCI/ADR-RES ovarian was > 100 µM each time. Besides, the TGI in the assay on PC-3 prostate and in the assay with T-47D breast was > 100 µM each time.
As for `Nc1ccccc1C#C/C=C\C#CC#C/C=C\C#Cc1ccccc1N`, the GI50 in the assay with BT-549 breast was 5.03 µM; in the assay with DU-145 prostate, 2.97 µM; in the assay on HS 578T breast, 12.4 µM; with MCF7 breast, 4.6 µM; in the assay on MDA-MB-435 it was 2.85 µM; with NCI/ADR-RES ovarian, 2.85 µM. For the same compound, the GI50 in the assay on PC-3 prostate was 2.59 µM; in the assay with T-47D breast it was 6.47 µM. In addition, the TGI in the assay on BT-549 breast was 25.9 µM; in the assay on DU-145 prostate, 13.5 µM; in the assay on HS 578T breast, 56.7 µM; in the assay on MCF7 breast, > 100 µM; in the assay with MDA-MB-435, 9.72 µM; with NCI/ADR-RES ovarian, 16.3 µM. Also, the TGI is 16.5 µM in the assay with PC-3 prostate and > 100 µM with T-47D breast.
For `CCOC(=O)C(Cc1c[nH]c2cc(N(CCO)CCO)ccc12)(NC(C)=O)C(=O)OCC`, the GI50 in the assay on BT-549 breast was 69.3 µM and 459 µM; in the assay on DU-145 prostate it was 391 µM; in the assay on HS 578T breast, 246 µM; in the assay on MCF7 breast it was 26.6 µM and 135 µM; in the assay on MDA-MB-435 it was 34.6 µM and 50.1 µM; in the assay on NCI/ADR-RES ovarian, > 1000 µM. Moreover, the GI50 in the assay with PC-3 prostate is 94.9 µM and 160 µM; with T-47D breast it was 472 µM. For the same compound, the TGI in the assay on BT-549 breast is > 1000 µM; in the assay on DU-145 prostate, > 1000 µM; with HS 578T breast it was 808 µM; in the assay with MCF7 breast it was 815 µM; with MDA-MB-435, 200 µM; with NCI/ADR-RES ovarian it was > 1000 µM. Further, the TGI in the assay on PC-3 prostate and in the assay on T-47D breast was > 1000 µM each time.
On to `COc1cccc(/C=C/c2nc3c(cnn3-c3ccccc3)c(=O)[nH]2)c1`, for which the GI50 with BT-549 breast was > 72.9 µM; in the assay with DU-145 prostate, > 100 µM; in the assay on HS 578T breast it was 13.7 µM; with MCF7 breast it was 0.467 µM; with MDA-MB-435, 0.447 µM; in the assay with NCI/ADR-RES ovarian it was > 33.7 µM. Moreover, the GI50 in the assay with PC-3 prostate was > 100 µM. In addition, the TGI with BT-549 breast was > 100 µM; in the assay on DU-145 prostate it was > 100 µM; in the assay with HS 578T breast, > 100 µM; in the assay with MCF7 breast it was > 100 µM; in the assay on MDA-MB-435 it was > 72.4 µM; in the assay with NCI/ADR-RES ovarian it was > 100 µM. The TGI with PC-3 prostate and in the assay on T-47D breast was > 100 µM throughout.
For the compound `Cc1cc(C(=O)/C=C/c2ccc[nH]2)ccc1-n1ccc(C(F)(F)F)n1`, the GI50 with BT-549 breast is 1.36 µM; with DU-145 prostate it was 24.8 µM; in the assay with HS 578T breast, 11.1 µM; in the assay with MCF7 breast it was 5.53 µM; with MDA-MB-435, 35.5 µM; with NCI/ADR-RES ovarian, 17.1 µM. Further, the GI50 was 0.472 µM in the assay on PC-3 prostate and 4.78 µM in the assay with T-47D breast. For the same compound, the TGI in the assay with BT-549 breast is 3.12 µM; with DU-145 prostate it was > 100 µM; in the assay on HS 578T breast, > 100 µM; in the assay with MCF7 breast, > 100 µM; in the assay on MDA-MB-435 it was > 100 µM; with NCI/ADR-RES ovarian, > 100 µM. Moreover, the TGI in the assay on PC-3 prostate is 4.45 µM; in the assay with T-47D breast, > 100 µM.
As to `Nc1nonc1-c1nc2ccccc2n1Cc1ccc(F)cc1`, the GI50 with BT-549 breast was 9.8 µM; in the assay with DU-145 prostate it was > 100 µM; in the assay on HS 578T breast, 3.18 µM; in the assay with MCF7 breast it was 3.78 µM; in the assay on MDA-MB-435 it was 1.87 µM; with NCI/ADR-RES ovarian it was 4.16 µM. Besides, the GI50 in the assay on T-47D breast is > 100 µM. Further, the TGI with BT-549 breast is > 100 µM; in the assay on DU-145 prostate, > 100 µM; with HS 578T breast, > 100 µM; with MCF7 breast, > 100 µM; in the assay on MDA-MB-435 it was 5.89 µM; in the assay on NCI/ADR-RES ovarian, > 100 µM. Also, the TGI in the assay on T-47D breast was > 100 µM.
As for `CC(=O)Oc1ccc2c(c1)[C@@]1(C)CCCC(C)(C)[C@@H]1CC2`, the GI50 with BT-549 breast is 36.5 µM; in the assay with HS 578T breast, 24.7 µM; in the assay on MCF7 breast, 34.6 µM; in the assay with MDA-MB-435 it was 16.8 µM; in the assay with NCI/ADR-RES ovarian it was 26 µM; in the assay on PC-3 prostate, 20.1 µM. Further, in the assay on T-47D breast, the GI50 is 37.5 µM. Moreover, the TGI in the assay with BT-549 breast was > 100 µM; in the assay on HS 578T breast it was 56.5 µM; in the assay on MCF7 breast, > 100 µM; in the assay with MDA-MB-435 it was 40 µM; in the assay with NCI/ADR-RES ovarian, 49.9 µM; with PC-3 prostate it was 39 µM. The TGI with T-47D breast is > 100 µM.
Turning to `N#Cc1cnc2cc(OC[C@@H](O)CO)c(NC(=O)C3CCCC3)cc2c1Nc1ccc(OCc2cccc(F)c2)c(Cl)c1`, the GI50 with BT-549 breast was 1.09 µM; with DU-145 prostate, 0.712 µM; with HS 578T breast, 0.265 µM; with MDA-MB-435, 1.82 µM; in the assay with NCI/ADR-RES ovarian, 21.7 µM; in the assay on PC-3 prostate, 0.947 µM. In addition, the GI50 with T-47D breast is 1.13 µM. In addition, the TGI is 2.89 µM with BT-549 breast; 1.42 µM in the assay on DU-145 prostate; 1.43 µM in the assay on HS 578T breast; 7.71 µM in the assay with MDA-MB-435; > 50 µM in the assay with NCI/ADR-RES ovarian; 1.92 µM in the assay on PC-3 prostate. The compound further had a TGI in the assay with T-47D breast of 4.31 µM.
Turning to `CC(C)(C)c1cc(C(=O)Nc2ccc(C(=O)NCCN)cc2)cc(C(C)(C)C)c1`, the GI50 in the assay with BT-549 breast was 13.1 µM; in the assay with DU-145 prostate it was 3.46 µM; with HS 578T breast, 2.2 µM; with MDA-MB-435, 1.52 µM; in the assay with NCI/ADR-RES ovarian, 14.7 µM; in the assay on PC-3 prostate it was 3.07 µM. For the same compound, the GI50 in the assay with T-47D breast was 2.07 µM. The TGI in the assay with BT-549 breast came to 33.6 µM; in the assay with DU-145 prostate it was 12.4 µM; in the assay with HS 578T breast, 5.96 µM; in the assay with MDA-MB-435, 3.09 µM; with NCI/ADR-RES ovarian it was 35 µM; in the assay on PC-3 prostate it was 11 µM. Moreover, in the assay with T-47D breast, the TGI came to 5.58 µM.
